Where “and” joins values, the source holds several entries; their conditions need not be identical. Identical values can stand only once. Inconclusive results and toxic doses are left out.

This test concerns P388 leukemia ip, CD2F1 mice, survival T/C. Nature of the test: NCI In Vivo Anticancer Drug Screen. Data for tumor model P388 Leukemia (intraperitoneal) in CD2F1 (CDF1) mice. The note with it: endpoint: median survival time, higher = longer survival. In short, it runs like this: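 Mice carrying the transplanted tumor received test compound or vehicle. Survival was recorded in each group, and the value is the treated-group measurement divided by that of the vehicle-treated control group.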

Where [1] appears, read: dose: 50.0 mg/kg/injection, schedule: Q01DX005 (ip), vehicle: saline with Tween-80.
Setting [2] is: dose: 100.0 mg/kg/injection, schedule: Q01DX005 (ip), vehicle: saline with Tween-80.
Where [3] appears, read: dose: 12.5 mg/kg/injection, schedule: Q01DX009 (ip), vehicle: saline.
[4] abbreviates: dose: 100.0 mg/kg/injection, schedule: Q04DX003 (ip), vehicle: saline.
Where [5] appears, read: dose: 6.25 mg/kg/injection, schedule: Q01DX005 (ip), vehicle: saline with Tween-80.
Setting [6] is: dose: 200.0 mg/kg/injection, schedule: Q01DX005 (ip), vehicle: saline with Tween-80.
Where [7] appears, read: dose: 10.0 mg/kg/injection, schedule: Q01DX009 (ip), vehicle: saline with Tween-80.
[8] abbreviates: dose: 60.0 mg/kg/injection, schedule: Q01DX005 (ip), vehicle: saline with Tween-80.
Where [9] appears, read: dose: 120.0 mg/kg/injection, schedule: Q01DX005 (ip), vehicle: saline with Tween-80.
The mark [10] stands for this setting: dose: 240.0 mg/kg/injection, schedule: Q01DX005 (ip), vehicle: saline with Tween-80.

As to `Cc1ccc(S(=O)(=O)OCC(C)(C)C)cc1`, the T/C was 100 % of control (dose: 50.0 mg/kg/injection, schedule: Q04DX003 (ip), vehicle: Klucel (hydroxypropylcellulose) (HPC)); 100 % of control (dose: 100.0 mg/kg/injection, schedule: Q04DX003 (ip), vehicle: Klucel (hydroxypropylcellulose) (HPC)); 100 % of control (dose: 200.0 mg/kg/injection, schedule: Q04DX003 (ip), vehicle: Klucel (hydroxypropylcellulose) (HPC)); 96 % of control (dose: 400.0 mg/kg/injection, schedule: Q04DX003 (ip), vehicle: Klucel (hydroxypropylcellulose) (HPC)).

On to `CSC(=S)C(CNc1ncccn1)c1ccccc1` (stereo not drawn), for which the T/C by setting is: (dose: 60.0 mg/kg/injection, schedule: Q01DX005 (ip), vehicle: Klucel + Tween-80) 89 % of control; (dose: 120.0 mg/kg/injection, schedule: Q01DX005 (ip), vehicle: Klucel + Tween-80) 89 % of control.

For `CC(=O)OCC#CCN1CCCCC1C` (stereo not drawn), the T/C by setting is: (dose: 50.0 mg/kg/injection, schedule: Q01DX005 (ip), vehicle: saline) 111 % of control; (dose: 100.0 mg/kg/injection, schedule: Q01DX005 (ip), vehicle: saline) 101 % of control; (dose: 200.0 mg/kg/injection, schedule: Q01DX005 (ip), vehicle: saline) 103 % of control.

For `Cc1c(S)cnc2ccccc12`, the T/C by setting is: under setting [1], 99 % of control; under setting [2], 93 % of control.

As to `CC[N](CC)[Ge]([CH2]C)[CH2]C.CC[N](CC)[Ge]([CH2]C)[CH2]C`, the T/C is 106 % of control (dose: 6.25 mg/kg/injection, schedule: Q01DX009 (ip), vehicle: saline); 109 % of control under setting [3]; 116 % of control (dose: 50.0 mg/kg/injection, schedule: Q04DX003 (ip), vehicle: saline); 114 % of control under setting [4].

For the molecule `O=C(Nc1ccc(C2=NCC(O)CN2)cc1)c1ccc(C(=O)Nc2ccc(C3=NCC(O)CN3)cc2)cc1` (stereo not drawn), the T/C by setting is: (dose: 1.56 mg/kg/injection, schedule: Q01DX005 (ip), vehicle: saline with Tween-80) 122 % of control; under setting [5], 155 % of control.

Turning to `Oc1ccc(C[n+]2ccccc2)cc1O`, the T/C is 101 % of control and 97 % of control (dose: 3.12 mg/kg/injection, schedule: Q01DX005 (ip), vehicle: saline); 102 % of control and 103 % of control (dose: 6.25 mg/kg/injection, schedule: Q01DX005 (ip), vehicle: saline); 100 % of control and 105 % of control (dose: 12.5 mg/kg/injection, schedule: Q01DX005 (ip), vehicle: saline); 92 % of control and 97 % of control (dose: 25.0 mg/kg/injection, schedule: Q01DX005 (ip), vehicle: saline).

With `CCN(CC)CCN=c1nc(/C=C\C=C\NN(C)C(=S)SC)c(C)nn1C`, the T/C under setting [5] was 103 % of control; the T/C (dose: 12.5 mg/kg/injection, schedule: Q01DX005 (ip), vehicle: saline with Tween-80) was 87 % of control; the T/C (dose: 25.0 mg/kg/injection, schedule: Q01DX005 (ip), vehicle: saline with Tween-80) is 89 % of control; the T/C under setting [6] was 90 % of control.

For `Cc1cc(Nc2ccc(C(=O)N/N=C/c3ccc(N(CCCl)CCCl)cc3)cc2)nc2ccc(Cl)cc12`, the T/C was 90 % of control (dose: 50.0 mg/kg/injection, schedule: Q01DX009 (ip), vehicle: saline); 91 % of control (dose: 100.0 mg/kg/injection, schedule: Q01DX009 (ip), vehicle: saline); 87 % of control (dose: 200.0 mg/kg/injection, schedule: Q01DX009 (ip), vehicle: saline).

As to `CN(C)P(c1ccccc1)N(C)C`, the T/C reads like this: (dose: 50.0 mg/kg/injection, schedule: Q01DX009 (ip), vehicle: Klucel (hydroxypropylcellulose) (HPC)) 106 % of control; (dose: 100.0 mg/kg/injection, schedule: Q01DX009 (ip), vehicle: Klucel (hydroxypropylcellulose) (HPC)) 102 % of control; (dose: 200.0 mg/kg/injection, schedule: Q01DX009 (ip), vehicle: Klucel (hydroxypropylcellulose) (HPC)) 107 % of control.

`CCN(CC)CCCNC(C)=O`: the T/C under setting [4] is 100 % of control; the T/C (dose: 200.0 mg/kg/injection, schedule: Q04DX003 (ip), vehicle: saline) is 91 % of control; the T/C (dose: 400.0 mg/kg/injection, schedule: Q04DX003 (ip), vehicle: saline) is 95 % of control.

`FC(F)(F)C(OP(OC(C(F)(F)F)C(F)(F)F)OC(C(F)(F)F)C(F)(F)F)C(F)(F)F`: the T/C reads like this: under setting [1], 101 % of control; under setting [2], 92 % of control; under setting [6], 92 % of control.

`O=C(Nc1ccccc1O)/C(Cl)=C/Cl`: the T/C (dose: 33.0 mg/kg/injection, schedule: Q01DX009 (ip), vehicle: saline with Tween-80) was 120 % of control; the T/C (dose: 75.0 mg/kg/injection, schedule: Q01DX009 (ip), vehicle: saline with Tween-80) was 115 % of control; the T/C (dose: 100.0 mg/kg/injection, schedule: Q04DX003 (ip), vehicle: saline with Tween-80) is 105 % of control; the T/C (dose: 200.0 mg/kg/injection, schedule: Q04DX003 (ip), vehicle: saline with Tween-80) was 120 % of control.

Take `CCCCCCCN(CCCCCCC)CC(O)c1c(OC)c2cc(Cl)ccc2c2ccc(Cl)cc12` (stereo not drawn): the T/C under setting [7] is 94 % of control; the T/C (dose: 20.0 mg/kg/injection, schedule: Q01DX009 (ip), vehicle: saline with Tween-80) was 90 % of control; the T/C (dose: 40.0 mg/kg/injection, schedule: Q01DX009 (ip), vehicle: saline with Tween-80) is 92 % of control.

In the case of `CCCCCCCCCCNCCSSCc1ccccc1`, the T/C was 100 % of control (dose: 12.5 mg/kg/injection, schedule: Q04DX002 (ip), vehicle: Klucel (hydroxypropylcellulose) (HPC)); 100 % of control (dose: 25.0 mg/kg/injection, schedule: Q04DX002 (ip), vehicle: Klucel (hydroxypropylcellulose) (HPC)); 109 % of control (dose: 50.0 mg/kg/injection, schedule: Q04DX002 (ip), vehicle: Klucel (hydroxypropylcellulose) (HPC)); 105 % of control (dose: 100.0 mg/kg/injection, schedule: Q04DX002 (ip), vehicle: Klucel (hydroxypropylcellulose) (HPC)).

As for `c1ccc2c(c1)N=NN1CCCOC21` (stereo not drawn), the T/C is, setting by setting: under setting [8], 100 % of control; under setting [9], 95 % of control; under setting [10], 99 % of control.

Turning to `COc1cc(O)c(Cc2ccc3c(c2)OCO3)cc1O`, the T/C (dose: 2.5 mg/kg/injection, schedule: Q01DX009 (ip), vehicle: saline with Tween-80) was 100 % of control; the T/C (dose: 5.0 mg/kg/injection, schedule: Q01DX009 (ip), vehicle: saline with Tween-80) is 100 % of control; the T/C under setting [7] was 115 % of control.

For the molecule `Cc1c(C)c2ccc(OCCCN3CCN(Cc4ccc(Cl)cc4)CC3)cc2oc1=O`, the T/C runs as follows: (dose: 50.0 mg/kg/injection, schedule: Q01DX009 (ip), vehicle: suspension in saline) 88 % of control; (dose: 100.0 mg/kg/injection, schedule: Q01DX009 (ip), vehicle: suspension in saline) 91 % of control.

As for `COc1ccc(C(=O)CC[N+](C)(C)C)cc1`, the T/C was 106 % of control under setting [3] and 101 % of control (dose: 25.0 mg/kg/injection, schedule: Q01DX009 (ip), vehicle: saline).

On to `CC1=C/C(=C(\c2cc(C)c(O)c(C(=O)O)c2)c2c(Cl)cccc2Cl)C=C(C(=O)O)C1=O`, for which the T/C reads like this: under setting [1], 103 % of control; under setting [2], 100 % of control; under setting [6], 100 % of control.

As to `O=C(CO)CC(=O)CCC(=O)Nc1cccc([N+](=O)[O-])c1`, the T/C runs as follows: under setting [8], 105 % of control; under setting [9], 111 % of control; under setting [10], 105 % of control.

For `O=c1sc2ccccc2n1CCCl`, the T/C reads like this: (dose: 25.0 mg/kg/injection, schedule: Q01DX009 (ip), vehicle: saline with Tween-80) 112 % of control; (dose: 50.0 mg/kg/injection, schedule: Q01DX009 (ip), vehicle: saline with Tween-80) 110 % of control; (dose: 100.0 mg/kg/injection, schedule: Q01DX009 (ip), vehicle: saline with Tween-80) 114 % of control; (dose: 200.0 mg/kg/injection, schedule: Q01DX009 (ip), vehicle: saline with Tween-80) 103 % of control.

(Values after PubChem BioAssay AID330 (DTP/NCI, 2004).)
